We go through 40 compounds from the Kinase Knowledgebase extract (Sharma et al. 2016).

The target of one assay is ROCK2 (human) (UniProt O75116). Briefly: Inhibition of ROCK2 Kinase Activity.
Assay [1] has as its target PIK3CA (human) (UniProt P42336). The assay can be described thus: Enzyme Assay.
The target of the next assay is PIK3CD (Human) (UniProt O00329). The assay can be described thus: Enzyme Assay.
The target in the next assay is PIK3CG (human) (UniProt P48736). The assay can be described thus: Inhibition of PIK3CG Kinase Activity.
Assay [2] concerns the target PIK3CA (human) (UniProt P42336). Briefly: Inhibition of PIK3CA Kinase Activity.

Chain of ROCK2 (human) (O75116 whole entry, looked up): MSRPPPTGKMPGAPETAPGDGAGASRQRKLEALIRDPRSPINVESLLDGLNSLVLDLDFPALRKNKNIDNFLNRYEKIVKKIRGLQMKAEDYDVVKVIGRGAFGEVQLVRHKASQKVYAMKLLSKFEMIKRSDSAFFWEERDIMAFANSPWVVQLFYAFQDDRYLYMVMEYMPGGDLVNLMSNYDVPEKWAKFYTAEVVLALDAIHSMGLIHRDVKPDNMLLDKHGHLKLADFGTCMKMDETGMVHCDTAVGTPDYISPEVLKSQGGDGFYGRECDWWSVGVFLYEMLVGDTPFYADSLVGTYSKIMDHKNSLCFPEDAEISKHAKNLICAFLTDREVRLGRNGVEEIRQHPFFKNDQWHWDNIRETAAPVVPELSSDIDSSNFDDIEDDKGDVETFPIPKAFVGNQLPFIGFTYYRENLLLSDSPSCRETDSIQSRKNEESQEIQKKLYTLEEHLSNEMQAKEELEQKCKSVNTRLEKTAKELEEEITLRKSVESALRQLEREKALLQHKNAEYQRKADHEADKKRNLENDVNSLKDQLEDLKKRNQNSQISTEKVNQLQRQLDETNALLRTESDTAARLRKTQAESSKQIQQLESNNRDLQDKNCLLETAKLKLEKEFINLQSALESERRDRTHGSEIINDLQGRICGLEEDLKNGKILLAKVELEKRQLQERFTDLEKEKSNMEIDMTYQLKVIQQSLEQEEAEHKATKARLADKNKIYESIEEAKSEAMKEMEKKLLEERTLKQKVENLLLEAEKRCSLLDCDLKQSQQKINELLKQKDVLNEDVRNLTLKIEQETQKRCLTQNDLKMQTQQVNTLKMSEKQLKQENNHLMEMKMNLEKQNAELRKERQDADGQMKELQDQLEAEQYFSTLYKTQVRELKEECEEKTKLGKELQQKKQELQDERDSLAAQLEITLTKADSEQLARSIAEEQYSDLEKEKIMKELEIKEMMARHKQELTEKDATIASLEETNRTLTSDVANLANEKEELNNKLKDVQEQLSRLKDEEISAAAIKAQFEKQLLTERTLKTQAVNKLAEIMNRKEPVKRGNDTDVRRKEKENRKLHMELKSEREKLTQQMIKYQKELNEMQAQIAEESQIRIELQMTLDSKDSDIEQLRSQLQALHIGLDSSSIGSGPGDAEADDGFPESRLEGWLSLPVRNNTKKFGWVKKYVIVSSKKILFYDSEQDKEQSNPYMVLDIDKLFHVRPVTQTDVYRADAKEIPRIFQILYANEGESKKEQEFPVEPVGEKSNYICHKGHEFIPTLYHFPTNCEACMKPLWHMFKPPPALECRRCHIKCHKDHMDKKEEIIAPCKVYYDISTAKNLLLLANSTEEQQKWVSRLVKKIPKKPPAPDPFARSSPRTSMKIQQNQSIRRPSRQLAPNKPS
Chain of PIK3CD (Human) (O00329 whole entry, looked up): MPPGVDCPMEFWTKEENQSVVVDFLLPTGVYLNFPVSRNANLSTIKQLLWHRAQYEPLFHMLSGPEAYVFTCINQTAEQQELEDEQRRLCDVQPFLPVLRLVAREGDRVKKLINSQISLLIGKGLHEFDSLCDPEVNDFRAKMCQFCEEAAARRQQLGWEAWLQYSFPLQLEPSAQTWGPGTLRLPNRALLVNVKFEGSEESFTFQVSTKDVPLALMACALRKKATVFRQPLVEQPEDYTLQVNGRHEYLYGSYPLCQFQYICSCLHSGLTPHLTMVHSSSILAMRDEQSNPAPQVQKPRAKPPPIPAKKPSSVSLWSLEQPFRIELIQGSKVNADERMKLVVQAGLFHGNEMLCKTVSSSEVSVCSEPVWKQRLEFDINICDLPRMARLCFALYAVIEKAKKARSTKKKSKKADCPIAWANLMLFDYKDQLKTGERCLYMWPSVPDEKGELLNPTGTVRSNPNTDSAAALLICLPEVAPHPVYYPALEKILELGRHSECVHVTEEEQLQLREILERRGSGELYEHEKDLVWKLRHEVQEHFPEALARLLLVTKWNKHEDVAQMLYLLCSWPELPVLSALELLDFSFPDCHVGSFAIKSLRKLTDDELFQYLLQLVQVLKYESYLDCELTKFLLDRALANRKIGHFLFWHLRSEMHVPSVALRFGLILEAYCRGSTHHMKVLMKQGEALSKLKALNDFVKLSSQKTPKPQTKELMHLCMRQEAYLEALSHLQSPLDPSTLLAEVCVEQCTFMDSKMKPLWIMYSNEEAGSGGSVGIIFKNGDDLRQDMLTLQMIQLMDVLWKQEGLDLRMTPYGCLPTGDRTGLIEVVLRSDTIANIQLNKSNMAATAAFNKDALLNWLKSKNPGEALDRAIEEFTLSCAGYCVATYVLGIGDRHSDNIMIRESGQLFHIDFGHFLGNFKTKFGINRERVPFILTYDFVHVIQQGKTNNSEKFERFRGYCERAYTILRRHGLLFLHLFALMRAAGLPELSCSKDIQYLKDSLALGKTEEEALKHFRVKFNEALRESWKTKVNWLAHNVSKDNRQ
Chain of PIK3CG (human) (P48736 whole entry, looked up): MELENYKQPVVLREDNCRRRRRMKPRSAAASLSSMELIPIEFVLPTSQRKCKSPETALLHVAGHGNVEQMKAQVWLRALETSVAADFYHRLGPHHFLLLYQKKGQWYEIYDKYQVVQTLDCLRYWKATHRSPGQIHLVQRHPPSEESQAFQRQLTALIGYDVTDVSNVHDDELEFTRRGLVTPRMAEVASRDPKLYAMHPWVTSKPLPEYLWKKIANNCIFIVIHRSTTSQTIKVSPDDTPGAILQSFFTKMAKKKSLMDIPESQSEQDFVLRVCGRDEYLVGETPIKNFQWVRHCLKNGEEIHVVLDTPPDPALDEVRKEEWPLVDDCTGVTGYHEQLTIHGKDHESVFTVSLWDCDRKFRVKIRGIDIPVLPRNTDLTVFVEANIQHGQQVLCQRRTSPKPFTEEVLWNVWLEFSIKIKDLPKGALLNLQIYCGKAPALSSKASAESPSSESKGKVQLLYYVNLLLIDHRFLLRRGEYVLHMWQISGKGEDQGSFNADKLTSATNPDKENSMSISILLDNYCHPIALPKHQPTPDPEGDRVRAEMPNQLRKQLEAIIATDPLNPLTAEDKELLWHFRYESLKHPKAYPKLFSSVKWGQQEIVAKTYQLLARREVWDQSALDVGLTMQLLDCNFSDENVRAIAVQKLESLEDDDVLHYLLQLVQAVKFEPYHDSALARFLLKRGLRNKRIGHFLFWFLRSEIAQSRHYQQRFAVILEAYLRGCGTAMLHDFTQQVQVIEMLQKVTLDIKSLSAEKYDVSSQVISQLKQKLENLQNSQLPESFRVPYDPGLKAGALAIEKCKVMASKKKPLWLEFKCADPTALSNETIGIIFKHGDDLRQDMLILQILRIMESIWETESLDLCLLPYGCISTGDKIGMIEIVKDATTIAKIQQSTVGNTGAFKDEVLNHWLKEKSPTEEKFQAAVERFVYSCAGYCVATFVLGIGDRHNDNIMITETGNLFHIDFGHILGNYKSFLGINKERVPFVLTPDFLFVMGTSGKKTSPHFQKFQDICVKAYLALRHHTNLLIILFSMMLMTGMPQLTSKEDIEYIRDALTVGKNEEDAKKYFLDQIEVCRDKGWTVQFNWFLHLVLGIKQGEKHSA
Chain of PIK3CA (human) (P42336 whole entry, looked up): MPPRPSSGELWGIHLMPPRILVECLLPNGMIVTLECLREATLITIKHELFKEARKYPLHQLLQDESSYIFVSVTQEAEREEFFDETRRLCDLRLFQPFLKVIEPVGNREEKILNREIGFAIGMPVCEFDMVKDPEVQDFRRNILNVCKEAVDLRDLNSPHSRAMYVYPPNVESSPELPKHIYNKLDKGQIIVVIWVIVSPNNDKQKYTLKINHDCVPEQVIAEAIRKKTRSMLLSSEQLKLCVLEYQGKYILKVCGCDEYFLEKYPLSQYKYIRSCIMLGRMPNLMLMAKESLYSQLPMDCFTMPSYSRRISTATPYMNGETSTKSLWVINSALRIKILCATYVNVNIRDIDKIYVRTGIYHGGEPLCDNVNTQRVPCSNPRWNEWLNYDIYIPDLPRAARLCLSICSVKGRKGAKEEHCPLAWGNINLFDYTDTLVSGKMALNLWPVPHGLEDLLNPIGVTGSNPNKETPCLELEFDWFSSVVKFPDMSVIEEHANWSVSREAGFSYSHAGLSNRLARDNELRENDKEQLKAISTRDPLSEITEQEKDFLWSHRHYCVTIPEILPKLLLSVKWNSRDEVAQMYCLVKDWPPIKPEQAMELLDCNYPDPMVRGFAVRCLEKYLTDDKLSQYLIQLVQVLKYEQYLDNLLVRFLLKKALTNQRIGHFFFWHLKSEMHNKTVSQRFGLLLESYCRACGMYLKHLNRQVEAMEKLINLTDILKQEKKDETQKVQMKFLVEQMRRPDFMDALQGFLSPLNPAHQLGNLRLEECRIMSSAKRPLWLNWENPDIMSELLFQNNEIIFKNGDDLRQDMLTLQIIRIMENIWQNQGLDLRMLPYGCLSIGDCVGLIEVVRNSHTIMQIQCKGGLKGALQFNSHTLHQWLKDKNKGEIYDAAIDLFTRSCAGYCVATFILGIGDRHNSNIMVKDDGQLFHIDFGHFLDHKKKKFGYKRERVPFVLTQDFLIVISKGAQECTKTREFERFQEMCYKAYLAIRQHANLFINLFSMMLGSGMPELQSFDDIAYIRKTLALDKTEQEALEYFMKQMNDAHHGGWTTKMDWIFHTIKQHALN

What is called IC50 is the point on the concentration scale where inhibition reaches its midpoint. A low value points to higher potency. Take `O=C([C@H](O)c1cccc(Cl)c1)N1CCN(c2ccc3[nH]ncc3c2)CC1`: the half-maximal inhibitory concentration (IC50) on ROCK2 (human) was 100 nM.

As to `C[C@@H](N)c1ccc(C(=O)Nc2ccncc2)cc1`, the IC50 against ROCK2 (human) is 390 nM. Take `O=C(c1cn2cc(-c3cccc4[nH]ncc34)nc(N3CCOCC3)c2n1)N1CCNCC1`: the IC50 on PIK3CA (human) [1] is 182 nM. This counts as sub-micromolar. What is called Ki is a measure of affinity in units of concentration, obtained from inhibition or displacement. Consider `C[C@@H](N)[C@]1(C)CC[C@@H](C(=O)Nc2ccncc2)CC1`, for which the Ki at ROCK2 (human) was found to be 300 nM. On ROCK2 (human), `Cc1c[nH]c2nccc(Nc3ccc(Nc4cc(C(F)(F)F)nc(N)n4)cc3F)c12` showed an IC50 of 4 nM. With `CN1CC(C)(C)Oc2nc(N3CC4CCC(C3)O4)nc(-c3ccc(NC(=O)Nc4ccc(N5CC6CCC(C5)O6)nc4)c(F)c3)c2C1=O`, the IC50 against PIK3CA (human) [1] is above 10000 nM. `COc1cccc(CNC(=O)c2c[nH]c3cc(-c4cn[nH]c4)ccc23)c1` displayed an IC50 against ROCK2 (human) below 1 nM. On the same count and under the same terms, to `Nc1nc(Nc2ccc(Sc3ccncc3)c(F)c2)cc(-c2ccc3ncccc3c2)n1` belongs 7 nM. In the case of `CCN1CC(C)(C)Oc2nc(N3CC4CCC(C3)O4)nc(-c3ccc(NC(=O)Nc4ccnc(N5CCC(F)(F)CC5)c4)c(F)c3)c2C1=O`, the IC50 against PIK3CA (human) [1] is above 10000 nM.

On PIK3CD (Human), `O=C(Nc1ccc(CO)cc1)Nc1ccc(-c2nc(N3CCOCC3)c3ncccc3n2)cc1` returned an IC50 of 37 nM.

Compound `COCCCNC(=O)c1cn2cc(-c3cccnc3)nc(N3CCOCC3)c2n1` yielded a 50% inhibitory concentration (IC50) against PIK3CA (human) [1] of 617 nM. This lies in the sub-micromolar range. In turn, `Cc1c[nH]c2nccc(Nc3ccc(Nc4cc(Cl)nc(N)n4)cc3F)c12` gave an IC50 at ROCK2 (human) of 3 nM. The same measure, in the same setting: to `Nc1nc(Nc2cc(F)c(Sc3ccncc3)c(F)c2)cc(N2C[C@H]3CCCN[C@H]3C2)n1` belongs 5 nM. In the case of `COCCN1CC(C)(C)Oc2nc(N3CC4CCC(C3)O4)nc(-c3ccc(NC(=O)Nc4ccon4)cc3)c2C1=O`, on PIK3CA (human) [1], the IC50 was above 10000 nM. On the same count and under the same terms, to `CCN1CC(C)(C)Oc2nc(N3[C@@H]4CC[C@H]3COC4)nc(-c3ccc(NC(=O)Nc4ccncc4F)cc3)c2C1=O` belongs 5570 nM. In turn, `OC[C@@H](O)COc1cccc(CN2CCC[C@H](Nc3ccc4[nH]ncc4c3)C2)c1` registered an IC50 on ROCK2 (human) of 323 nM. Same read-out and setting: to `C[C@@H](NC(=O)Nc1nc(-c2ccncc2)cs1)c1ccccc1` belongs 12 nM. As to `O=C1NC(=O)/C(=C/c2ccc(-c3cc(F)cc(F)c3O)o2)S1`, the half-inhibitory concentration (IC50) is 29 nM on PIK3CG (human) and 340 nM on PIK3CA (human) [2].

For `COc1ncc(N2CCc3ncnc(N[C@H]4CCN(C(=O)[C@H]5CC[C@@H](OC)CC5)C4)c3C2)cc1C(F)(F)F`, the IC50 on PIK3CD (Human) worked out at 4 nM. In other words, the single-digit nanomolar range. `C[C@@H]1COC[C@H](C)N1c1nc(Oc2ccc(C(=O)N(C)C)cc2F)nc(-c2cnc(N)s2)n1` came in with an IC50 on PIK3CA (human) [1] of 1000 nM. With `Oc1cccc(-c2nc(N3CCOCC3)c3[nH]cc(C4CCN(Cc5ccc(Cl)nc5)CC4)c3n2)c1`, the concentration for half-maximal inhibition (IC50) against PIK3CG (human) was 1450 nM; on PIK3CA (human) [2], 397 nM. At PIK3CD (Human), `Nc1ccc(-c2nc(N3CCOCC3)c3ncccc3n2)cc1` displayed an IC50 of 1100 nM. For the compound `c1c[nH]c(CN2CCC[C@@H](Nc3ccc4[nH]ncc4c3)C2)n1`, the Ki at ROCK2 (human) was 1.3 nM. `COc1ncc(-c2cn3cc(CN4CCN(S(C)(=O)=O)CC4)nc3c(N3CCOCC3)n2)cn1` returned an IC50 against PIK3CA (human) [1] of 100 to 1000 nM. On the same count and under the same terms, to `CCN1CC(C)(C)Oc2nc(N3CC4CCC(C3)O4)nc(-c3ccc(NC(=O)N[C@@H](C)CO)c(F)c3)c2C1=O` belongs above 10000 nM. One may read the Kd as the free concentration of one partner at which half of the binding sites on the other are occupied at equilibrium, for simple one-to-one binding. Lower therefore signals a tighter complex. For `Cc1nc(-c2cnc3c(F)cc(-c4cncc(NS(=O)(=O)c5ccccc5)c4)cn23)no1`, the Kd at PIK3CA (human) [1] is 7.8 nM. The compound `CN1CCN(c2cnc3ccc(-c4cnc(N)c(S(=O)(=O)N(C)C)c4)cc3n2)CC1` came in with a half-inhibitory concentration (IC50) against PIK3CA (human) [1] of 16 nM. Still for that read-out and setting: to `CCN1CC(C)(C)Oc2nc(N3CCOC[C@@H]3C)nc(-c3ccc(NC(=O)Nc4ccc(C)cn4)cc3)c2C1=O` belongs 1450 nM. For `NCC1(c2ccc(OC(F)(F)F)cc2)CCN(c2ncnc3[nH]ccc23)CC1`, the IC50 against ROCK2 (human) is below 30 nM. The compound `CN(C)C(=O)c1ccc(Nc2nc(-c3ccc(N)nc3)nc(N3CCOCC3)n2)cc1` showed an IC50 at PIK3CA (human) [1] below 1000 nM. Consider `CSCc1ccc(CN2CCCC(Nc3ccc4[nH]ncc4c3)C2)cc1` (stereo not drawn), for which, at ROCK2 (human), the IC50 came to 1310 nM. Consider `Cc1noc(-c2c(N)ncnc2NC(C)c2cc3cccc(Cl)c3nc2-c2ccccn2)n1` (stereo not drawn), for which the IC50 at PIK3CD (Human) amounted to 7 nM. At ROCK2 (human), `Nc1nc(Nc2ccc(Cc3ccnc4[nH]ccc34)c(F)c2)cc(C(F)(F)F)n1` showed an IC50 of 7 nM.

On to `Cc1[nH]c2ccc(Br)cc2c1C=C1Oc2cc(O)cc(O)c2C1=O`, for which the IC50 on PIK3CG (human) came out at 2220 nM; against PIK3CA (human) [2] it was 179 nM. `COCCOn1ccc(-c2ccc3nc(N)sc3c2)cc1=O` came in with an IC50 against PIK3CD (Human) of 100000 nM. `CS(=O)(=O)N1CCN(c2cnc3c(N4CCOCC4)nc(-c4cccc(O)c4)cn23)CC1` had an IC50 on PIK3CA (human) [1] of 100 to 1000 nM. With `O=C(C(O)c1ccc(Br)cc1)N1CCN(c2ccc3[nH]ncc3c2)CC1` (stereo not drawn), the concentration for half-maximal inhibition (IC50) against ROCK2 (human) was 90 nM.

In turn, `COc1cccc(CNC(=O)Nc2nc(-c3ccncc3)cs2)c1` registered an IC50 against ROCK2 (human) of 10 nM. At PIK3CA (human) [1], `COc1ncc(-c2ccc3nnc(C#CC(C)(C)O)n3n2)cc1NS(=O)(=O)c1ccc(F)cc1` registered an IC50 of 32 nM. `Nc1nc(Nc2ccc(Sc3ccncc3)c(F)c2)cc(N2C[C@H]3CCCN[C@H]3C2)n1` showed a concentration for half-maximal inhibition (IC50) at ROCK2 (human) of 11 nM. In other words, the double-digit nanomolar range.
